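A five-concentration, 48-hour dose response in 96-well plates underlies each endpoint, interpolated linearly between surrounding concentrations. The concentration for 50% growth inhibition is given as GI50. TGI is the concentration that stops growth completely.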
Columns and labels:
Assay in all cases: DTP human tumour cell line panel, 48 h
[1] = test system: BT-549 breast
[2] = test system: SF-539 CNS
[3] = test system: RPMI-8226 leukemia
[4] = test system: IGROV1 ovarian
[5] = test system: A498 renal
[6] = test system: MOLT-4 leukemia
[7] = test system: DU-145 prostate
[8] = test system: MALME-3M melanoma
[9] = test system: HL-60(TB) leukemia
[10] = test system: TK-10 renal
[11] = test system: HCC-2998 colon
[12] = test system: HCT-116 colon
[13] = test system: SN12C renal
[14] = test system: NCI-H226 lung
[15] = test system: RXF 393 renal
[16] = test system: NCI-H522 lung
[17] = test system: UACC-62 melanoma
[18] = test system: A549 NSCLC
[19] = test system: 786-0 renal
[20] = test system: SW-620 colon
[21] = test system: SK-OV-3 ovarian
[22] = test system: MCF7 breast
[23] = test system: HOP-92 NSCLC
[24] = test system: HOP-62 NSCLC
[25] = test system: SNB-19 CNS
[26] = test system: SF-268 CNS
[27] = test system: CAKI-1 renal
[28] = test system: MDA-MB-468 breast
[29] = test system: SR leukemia
[30] = test system: KM12 colon
[31] = test system: CCRF-CEM leukemia
[32] = test system: OVCAR-3 ovarian
[33] = test system: EKVX NSCLC
[34] = test system: NCI-H23 lung
[35] = test system: OVCAR-5 ovarian
[36] = test system: HT29 colon
[37] = test system: UACC-257 melanoma
[38] = test system: SNB-75 CNS
[39] = test system: HS 578T breast
[40] = test system: U251 CNS
[41] = test system: LOX IMVI melanoma
[42] = test system: SF-295 CNS
[43] = test system: NCI-H460 lung
[44] = test system: COLO 205 colon
[45] = test system: M14 melanoma
[46] = test system: SK-MEL-5 melanoma
[47] = test system: OVCAR-8 ovarian
[48] = test system: SK-MEL-2 melanoma
[49] = test system: UO-31 renal
[50] = test system: ACHN renal
[51] = test system: PC-3 prostate
[52] = test system: K-562 leukemia
[53] = test system: HCT-15 colon
[54] = test system: MDA-MB-435
[55] = test system: OVCAR-4 ovarian
[56] = test system: MDA-MB-231 breast
[57] = test system: SK-MEL-28 melanoma
[58] = test system: T-47D breast

O=C(/C=C/c1cccc(Br)c1)c1nc2ccccc2n1Cc1ccc(Br)cc1
GI50 [1]: 1.77 µM | TGI [1]: 3.55 µM | GI50 [2]: 1.99 µM | TGI [2]: 3.92 µM | GI50 [3]: 2.39 µM | TGI [3]: 8.27 µM | GI50 [4]: 2.16 µM | TGI [4]: 5.4 µM | GI50 [5]: 13.5 µM | TGI [5]: 28.1 µM | GI50 [6]: 2.11 µM | TGI [6]: 9.16 µM | GI50 [7]: 4.1 µM | TGI [7]: 15.9 µM | GI50 [8]: 1.91 µM | TGI [8]: 3.97 µM | GI50 [9]: 1.75 µM | TGI [9]: 5.12 µM | GI50 [10]: 3.07 µM | TGI [10]: 11.6 µM | GI50 [11]: 1.69 µM | TGI [11]: 3.12 µM | GI50 [12]: 1.67 µM | TGI [12]: 3.14 µM | GI50 [13]: 3.42 µM | TGI [13]: 12.9 µM | GI50 [14]: 2.45 µM | TGI [14]: 6.13 µM | GI50 [15]: 1.54 µM | TGI [15]: 2.95 µM | GI50 [16]: 1.73 µM | TGI [16]: 3.48 µM | GI50 [17]: 1.54 µM | TGI [17]: 3.28 µM | GI50 [18]: 3.97 µM | TGI [18]: > 100 µM | GI50 [19]: 1.86 µM | TGI [19]: 3.7 µM | GI50 [20]: 1.6 µM | TGI [20]: 3.59 µM | GI50 [21]: 14.4 µM | TGI [21]: > 100 µM | GI50 [22]: 1.7 µM | TGI [22]: 5.71 µM | GI50 [23]: 1.6 µM | TGI [23]: 6.46 µM | GI50 [24]: 2.16 µM | TGI [24]: 4.76 µM | GI50 [25]: 1.77 µM | TGI [25]: 3.64 µM | GI50 [26]: 4.93 µM | TGI [26]: 71.7 µM | GI50 [27]: 1.85 µM | TGI [27]: 5.35 µM | GI50 [28]: 1.87 µM | TGI [28]: 3.85 µM | GI50 [29]: 2.53 µM | TGI [29]: 8.96 µM | GI50 [30]: 2.53 µM | TGI [30]: 7.44 µM | GI50 [31]: 2.09 µM | TGI [31]: > 100 µM | GI50 [32]: 1.56 µM | TGI [32]: 3.3 µM | GI50 [33]: 2.4 µM | TGI [33]: 7.64 µM | GI50 [34]: 1.77 µM | TGI [34]: 3.99 µM | GI50 [35]: 2.06 µM | TGI [35]: 4.08 µM | GI50 [36]: 2.13 µM | TGI [36]: 4.9 µM | GI50 [37]: 3.04 µM | TGI [37]: 12 µM | GI50 [38]: 3.4 µM | TGI [38]: 25.2 µM | GI50 [39]: 3.71 µM | TGI [39]: > 100 µM | GI50 [40]: 1.7 µM | TGI [40]: 3.38 µM | GI50 [41]: 1.5 µM | TGI [41]: 2.9 µM | GI50 [42]: 2.07 µM | TGI [42]: 5.11 µM | GI50 [43]: 1.77 µM | TGI [43]: 3.87 µM | GI50 [44]: 1.99 µM | TGI [44]: 4.11 µM | GI50 [45]: 1.77 µM | TGI [45]: 3.59 µM | GI50 [46]: 1.7 µM | TGI [46]: 3.55 µM | GI50 [47]: 2.15 µM | TGI [47]: 5.71 µM | GI50 [48]: 1.66 µM | TGI [48]: 3.29 µM | GI50 [49]: 1.37 µM | TGI [49]: 2.78 µM | GI50 [50]: 2.41 µM | TGI [50]: 6.53 µM | GI50 [51]: 3.3 µM | TGI [51]: 14.9 µM | GI50 [52]: 2.6 µM | TGI [52]: > 100 µM | GI50 [53]: 1.56 µM | TGI [53]: 3.19 µM | GI50 [54]: 2.01 µM | TGI [54]: 4.79 µM | GI50 [55]: 4.07 µM | TGI [55]: > 100 µM | GI50 [56]: 2.06 µM | TGI [56]: 4.61 µM | GI50 [57]: 1.82 µM | TGI [57]: 3.68 µM | GI50 [58]: 2.33 µM | TGI [58]: 9.62 µM
